According to US12286418B2, “Compounds and methods for treating or preventing bacterial infections” (priority 2019, dated 2025):
Values joined by “and” are separate entries in the source; they are usually repeats but may differ in a detail not shown here. Identical values can stand only once. “Also recorded” adds a separate entry of the source. Like-named read-outs stand apart in the source and are kept apart here.

Assays:
[1] = test system: E. coli MG1655OXA-48; assay: Bacterial susceptibility (MIC, broth microdilution) of E. coli expressing OXA-48; format: cell-based; conditions: for MIC: Escherichia coli
Description: Bacterial susceptibility was specifically tested using minimum inhibitory concentration assays. Susceptibility assays were performed with E. coli strains using broth in a microplate set up. Two-fold dilutions of antibiotic and/or inhibitor were used. For susceptibility tests, bacterial strains were transformed with plasmids containing OXA-48 with its endogenous signal sequence for periplasmic migration (cloned into pTP123 vector) (Majiduddin & Palzkill, 2003, Antimicrob. Agents Chemother. 47:1062-1067). pTP123 was cut with XbaI and SacI and the linearized fragment was assembled using Gibson assembly (New England Biolabs, Ipswich, MA) its signal sequence cloned in by using Gibson assembly. Bacteria were grown in Mueller-Hinton broth with 12.5 μg/mL chloramphenicol (plasmid marker) overnight. An overnight culture was diluted 1:10^4 into the final well solutions (100 uL total) and incubated for 16-18 hours. After incubation, microplates were read using a Tecan plate reader at absorbance 600. Growth was objectively defined as yielding an absorbance ≥2 times the absorbance of the negative control (media and no culture). Experiments were repeated with new bacterial inoculums each time.
Effective β-lactamase inhibitors synergize with β-lactam antibiotics and ultimately lower the minimum inhibitory concentration (MIC) of antibiotic needed to kill the bacteria. MIC studies were performed with ampicillin (AMP), a β-lactam antibiotic readily hydrolyzed by OXA-48, against E. coli strain MG1655 expressing OXA-48 (MG1655OXA-48). The OXA-48 plasmid construct contained the endogenous signal sequence of OXA-48 for secretion to the periplasm, which was expressed under a trc-promoter, allowing leaky expression in the absence of IPTG inducer. All MICs were performed by broth microdilution with 2-fold dilutions of antibiotic and/or inhibitor (FIG. 6A). The ampicillin (AMP) and imipenem (IMP) MICs were separately determined for a range of CDD-97 and avibactam concentrations. […] In the absence of bacteria, the media (Mueller Hinton) gives an absorbance reading of 0.04 so absorbance readings greater than or equal to two-fold the control were considered bacterial growth. […] CDD-97 was tested for its synergistic ability by determining AMP MICs with a range of CDD-97 concentrations (up to 256 μg/ml).
Impermeability of the outer membrane to small molecules is a major challenge for the development of therapeutics for Gram-negative bacterial infections. β-lactamases, including OXA-48, reside in the periplasmic space and so inhibitors must traverse the outer membrane to be effective. To determine whether low permeability caused the poor in vivo activity of CDD-97, an accumulation assay (Richter, et al., 2017, Nature 545:299-304) was performed to quantify the amount of CDD-97 present in E. coli cells after incubation. In the assay, tetracycline was used as a positive control while fusidic acid and clindamycin were used as negative controls (Richter, et al., 2017, Nature 545:299-304). Controls and CDD-97 were separately incubated with wildtype E. coli (MG1655) cells and then these cells were centrifuged through silicone oil to separate free, unaccumulated compound from the cell pellet. Cell lysates were collected by freeze-thawing and analyzed by mass spectrometry to quantify the amount of accumulated compound. Compared to tetracycline, CDD-97 was present in cells at 20-fold lower levels (FIG. 6B). […] The finding that CDD-97 accumulates inefficiently across the outer membrane was also examined by adding sub-lethal concentrations of colistin to the ampicillin/CDD-97 MIC assays. Colistin is known to disrupt the outer membrane and enhance permeability in E. coli. If the outer membrane is a barrier for CDD-97, it was predicted that the addition of sub-lethal concentrations of colistin would enhance the activity of CDD-97 against E. coli. […]

[2] = biological target: OXA-48 (Klebsiella pneumoniae, UniProt Q6XEC0); assay: OXA-48 inhibition assay using nitrocefin as reporter; format: biochemical; set-up: His-tag (N, cleaved yes); made in house; host or cells: E. coli BL21(DE3), pET28a; conditions: for potency/activity against OXA-48 in words: purified OXA-48, compared with CDD-97 where a derivative; for fold reduction in potency (OXA-48 Ki) compared to CDD-97: relative to CDD-97
Sequence of OXA-48 (Q6XEC0 23-265, looked up): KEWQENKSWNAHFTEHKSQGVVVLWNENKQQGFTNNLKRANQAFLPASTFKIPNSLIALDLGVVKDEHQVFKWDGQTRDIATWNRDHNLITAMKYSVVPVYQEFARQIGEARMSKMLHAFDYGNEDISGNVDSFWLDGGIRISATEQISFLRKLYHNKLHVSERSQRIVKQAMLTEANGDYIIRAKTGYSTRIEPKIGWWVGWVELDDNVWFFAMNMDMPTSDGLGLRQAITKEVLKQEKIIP
Description: Nitrocefin, a chromogenic β-lactam substrate, was used as a reporter in all inhibition assays with the various OXA enzymes and various compounds. Nitrocefin is not stable in aqueous solution long-term. For these assays, nitrocefin stocks were prepared in DMSO, stored at −20° C. and used within 2 weeks of dissolving. To avoid freeze-thawing, fresh stocks were always used. The Km of nitrocefin was determined prior to inhibition assays by performing steady state kinetics. Assays were performed using a DU800 spectrophotometer at room temperature in 50 mM HEPES pH 7.5, 15 mM NaHCO3, and 0.02% tween 20 buffer. Hydrolyzed nitrocefin was detected at 482 nm. For a single experiment, a series of at least 5 nitrocefin concentrations were tested against the given enzyme in duplicate and the initial velocities were measured and fit to the Michaelis-Menten equation. Experiments were repeated twice, and error reported is the standard error of the mean.
Compounds were tested for inhibition of a given OXA enzyme from hydrolyzing nitrocefin using a Tecan plate reader. […] A control with no compound was included in each run. For each compound concentration, the velocity of nitrocefin hydrolysis was determined at 482 nm and fit to the Morrison equation. […] The average Ki of separate experiments, each of which consisted of duplicate runs, is reported and error was quantified as the standard deviation.
The activity of these derivatives was assessed using inhibition assays with purified OXA-48. Compounds were tested for the ability to inhibit OXA-48 from hydrolyzing nitrocefin, a chromogenic β-lactam substrate routinely used in β-lactamase inhibition assays. Nitrocefin contains a conjugated ring system that is readily hydrolyzed and produces a visible color shift from yellow to red upon hydrolysis (O'Callaghan, et al., 1972, Antimicrob. Agents Chemother. 1:283-288). The rate of nitrocefin hydrolysis in the presence of a constant amount of OXA-48 and increasing concentrations of a given compound of interest was monitored at 482 nm. These rates were plotted against compound concentration to determine the inhibition constant (Ki) against OXA-48. […] SPR was performed using 6×-His-OXA-48 enzyme that was amine-coupled on a Ni-NTA Chip. Meropenem, which covalently binds and inhibits OXA-48, was used as a positive control.

[3] = purified OXA-48, nitrocefin hydrolysis, Morrison fit

colistin [reference compound]
colistin concentration at which bacteria were completely killed off regardless of the presence of AMP ([1]; colistin, with or without AMP): At ≥2 μg/mL colistin, bacteria were completely

CCOc1ccccc1N1CCN(c2ncnc(N3CCC(C(N)=O)CC3)n2)CC1 [CDD-553, 1-(4-(4-(2-ethoxyphenyl)piperazin-1-yl)-1,3,5-triazin-2-yl)piperidine-4-carboxamide]
potency/activity against OXA-48 in words [2]: significant loss of inhibitory activity | Ki for OXA-48 inhibition [2, 3]: No binding

CCOc1ccccc1N1CCN(c2ncnc(N3CCNC(C(=O)O)CC3)n2)CC1 (stereo not drawn) [CDD-559]
Ki [2, 3]: 29 µM | fold reduction in potency (OXA-48 Ki) compared to CDD-97 [2]: approximately 50 fold

CC1(C)S[C@@H]2[C@H](NC(=O)[C@H](N)c3ccccc3)C(=O)N2[C@H]1C(=O)O [AMP, ampicillin, reference compound]
MIC ([1]; MG1655OXA48, read-out: AMP MIC, ampicillin alone, no inhibitor): 512 µg/mL | MIC ([1]; MG1655OXA48, read-out: AMP MICs, (−) CDD-97, colistin 0 μg/mL): 1020 µg/mL | MIC ([1]; MG1655OXA48, read-out: AMP MICs, (−) CDD-97, colistin 0.0625 μg/mL): 1020 µg/mL | MIC ([1]; MG1655OXA48, read-out: AMP MICs, (−) CDD-97, colistin 0.125 μg/mL): 1020 µg/mL | MIC ([1]; MG1655OXA48, read-out: AMP MICs, (−) CDD-97, colistin 0.25 μg/mL): 512 µg/mL | MIC ([1]; MG1655OXA48, read-out: AMP MICs, (−) CDD-97, colistin 0.5 μg/mL): 256 µg/mL | MIC ([1]; MG1655OXA48, read-out: AMP MICs, (−) CDD-97, colistin 1 μg/mL): 256 µg/mL

CCOc1ccccc1N1CCN(c2ncnc(N3CCC(C(=O)O)C(N)C3)n2)CC1 (stereo not drawn) [CDD-825]
Ki [2, 3]: 17 µM and 16.9 µM | fold reduction in potency (OXA-48 Ki) compared to CDD-97 [2]: approximately 30 fold

1-(4-(2-(2-ethoxyphenoxy)ethoxy)-1,3,5-triazin-2-yl)piperidine-4-carboxylic acid [CDD-900]
Ki [2, 3]: 38.1 µM

CCOc1ccccc1N1CCN(c2nc(NCCN)nc(N3CCC(C(=O)O)CC3)n2)CC1 [drawing 44]
Ki [2, 3]: 0.84 ± 0.03 µM

CCOc1ccccc1N1CCN(c2ncnc(N3CCC(C(=O)OC)CC3)n2)CC1 [CDD-95, methyl 1-(4-(4-(2-ethoxyphenyl)piperazin-1-yl)-1,3,5-triazin-2-yl)piperidine-4-carboxylate]
potency/activity against OXA-48 in words [2]: low of activity; also recorded: significant loss of inhibitory activity | Ki [2, 3]: ≥ 50 µM

CCOc1ccccc1N1CCN(c2ncnc(N3CCC(N)(C(=O)O)CC3)n2)CC1
Ki [2, 3]: 29 ± 4 µM

CCOc1ccccc1N1CCN(c2nc(N3CCC(C(=O)O)CC3)nc(N3CC(F)(C(=O)NC)C3)n2)CC1 [CDD-163, 1-(4-(4-(2-ethoxyphenyl)piperazin-1 yl)-6-(3-fluoro-3-(methylcarbamoyl)azetidin-1-yl)-1,3,5-triazin-2-yl)piperidine-4-carboxylic acid]
Ki [2, 3]: > 50 µM

CCOc1ccccc1N1CCN(c2nc(N)nc(N3CCC(C(=O)O)CC3)n2)CC1 [CDD-616, 1-(4-amino-6-(4-(2-ethoxyphenyl)piperazin-1-yl)-1,3,5-triazin-2-yl)piperidine-4-carboxylic acid]
potency/activity against OXA-48 in words [2]: does not have a large effect on potency; also recorded: retain potency; also recorded: did not affect potency | Ki [2, 3]: 0.52 ± 0.01 µM

CCOc1ccccc1CCCNc1ncnc(N2CCC(C(=O)O)CC2)n1 [CDD-899]
Ki [2, 3]: 15 µM

O=C(O)C1CCN(c2ncnc(N3CCN(c4ccccc4OCC(F)(F)F)CC3)n2)CC1 [CDD-178, 1-(4-(4-(2-(2,2,2-trifluoroethoxy)phenyl)piperazin-1-yl)-1,3,5-triazin-2-yl)piperidine-4-carboxylic acid]
Ki [2, 3]: 1 µM and 0.83 µM

CCOc1ccccc1OCCOc1ncnc(N2CCC(C(=O)O)CC2)n1
Ki [2, 3]: 18.8 ± 2.5 µM

CCOc1ccccc1N1CCN(c2ncnc(N3CCC(S(=O)(=O)O)CC3)n2)CC1 [CDD-862, 1-(4-(4-(2-ethoxyphenyl)piperazin-1-yl)-1,3,5-triazin-2-yl)piperidine-4-sulfonic acid]
Ki ([2]; purified OXA-48, nitrocefin): 0.26 µM | Ki [2, 3]: 0.27 ± 0.02 µM

CCOc1ccccc1N1CCN(c2ncnc(N3CCC(S(=O)(=O)O)CC3)n2)CC1 [drawing 46]
Ki [2, 3]: 0.26 ± 0.04 µM

CCOc1ccccc1N1CCN(c2nc(NCCCCN)nc(N3CCC(C(=O)O)CC3)n2)CC1 [CDD-863]
potency/activity against OXA-48 in words [2]: does not have a large effect on potency | Ki [2, 3]: 0.45 µM

CCOc1ccccc1N1CCN(c2nc(NCCN)nc(N3CCC(C(=O)O)CC3)n2)CC1 [CDD-864, 1-(4-((2-aminoethyl)amino)-6-(4-(2-ethoxyphenyl)piperazin-1-yl)-1,3,5-triazin-2-yl)piperidine-4-carboxylic acid]
Ki [2, 3]: 0.6 µM

NC(=O)[C@@H]1CC[C@@H]2CN1C(=O)N2OS(=O)(=O)O [avibactam, reference compound]
synergy with β-lactam antibiotics (effect on AMP/IMP MIC) in words ([1]; E. coli expressing OXA-48, CDD-97 up to 256 μg/mL, avibactam up to 4 μg/mL): dose-dependent decrease in both the AMP and IMP MICs | MIC ([1]; MG1655OXA48, read-out: AMP MIC, with 0.125 μg/mL avibactam): 256 µg/mL | MIC ([1]; MG1655OXA48, read-out: AMP MIC, with 1 μg/mL avibactam): 32 µg/mL | MIC ([1]; MG1655OXA48, read-out: AMP MIC, with 2 μg/mL avibactam): 16 µg/mL | MIC ([1]; MG1655OXA48, read-out: AMP MIC, with 4 μg/mL avibactam): 4 µg/mL | MIC ([1]; MG1655OXA48, read-out: AMP MIC, with .25 μg/mL avibactam): 128 µg/mL | MIC ([1]; MG1655OXA48, read-out: AMP MIC, with .5 μg/mL avibactam): 64 µg/mL | MIC ([1]; MG1655OXA48, read-out: IMP MIC, with 0.125 μg/mL avibactam): 0.312 µg/mL | MIC ([1]; MG1655OXA48, read-out: IMP MIC, with 1 μg/mL avibactam): 0.156 µg/mL | MIC ([1]; MG1655OXA48, read-out: IMP MIC, with 2 μg/mL avibactam): 0.156 µg/mL | MIC ([1]; MG1655OXA48, read-out: IMP MIC, with 4 μg/mL avibactam): 0.0781 µg/mL | MIC ([1]; MG1655OXA48, read-out: IMP MIC, with .25 μg/mL avibactam): 0.312 µg/mL | MIC ([1]; MG1655OXA48, read-out: IMP MIC, with .5 μg/mL avibactam): 0.156 µg/mL

C[C@@H](O)[C@H]1C(=O)N2C(C(=O)O)=C(SCCN=CN)C[C@H]12 [IMP, imipenem, reference compound]
MIC ([1]; MG1655OXA48, read-out: IMP MIC, imipenem alone, no inhibitor): 0.625 µg/mL
